Values joined by “and” are separate entries in the source; they are usually repeats but may differ in a detail not shown here. Equal entries are not always repeated.
What was measured:
[1] = test system: BJ human normal fibroblast cells; assay: MTT cell viability assay, BJ normal fibroblasts; type: cell-based; conditions: MTT test, 24 h treatment
Method: (§1) The evaluation of cytotoxicity of tested compounds was carried out on the G361, A375, and SK-MEL-28 human melanoma cells and BJ human normal fibroblast cells. The cell lines were obtained from American Type Culture Collection (ATCC, Manassas, VA, USA). The cells were cultured at 37 °C in the presence of 5% CO2 in atmosphere. The culture medium (Dulbecco’s Modified Eagle’s Medium for G361 and A375 and Eagle’s Minimum Essential Medium for SK-MEL-28 and BJ) was supplemented with 10% foetal bovine serum. The cells morphology was examined under inverted phase contrast microscope Nikon Eclipse Ti (Nikon, Tokyo, Japan). The authenticity of tested cell lines was verified by short tandem repeat (STR) genotyping in the Department of Forensic Medicine (Medical University of Lublin, Lublin, Poland).
(§2) The cells were seeded into 96-well plates (in concentration: BJ, A375, and SK-MEL-28—1 × 10^5 cells/mL, G361—1.5 × 10^5 cells/mL) and cultured until they reach 70–80% confluency. Then the cells were incubated with tested compounds and dacarbazine in concentrations ranging from 10 to 500 µM or DMSO as vehicle in control cultures for next 24 h (max. DMSO concentration <0.5%). The compounds cytotoxicity was evaluated with the MTT colorimetric method based on the ability of viable cells to the transformation of tetrazolium salts (3-[4,5-dimethylthiazol-2-yl]-2,5-) diphenyltetrazolium bromide, MTT) to purple formazan, by cellular dehydrogenases. After 24-h-incubation cell cultures were supplemented with 20 µL of 5 mg/mL MTT (Thermofisher, Waltham, MA, USA) stock in PBS (Corning, NY, USA), and the incubation was continued for 4 h at 37 °C. Next, the medium with MTT was removed, and the formed crystals were dissolved in 200 µL of DMSO (dimethyl sulfoxide, Avantor, Gliwice, Poland). The solution absorbency was measured at 570 nm, using a PowerWave™ xs microplate spectrophotometer (BioTek Instruments, Winooski, VT, USA). The experiment was performed three times with three replicates for each concentration of tested compounds. IC50 values were determined using the AAT Bioquest IC50 calculator [51]. On the basis of obtained IC50 values for normal and malignant cells, A375 cell line and three tested compounds (CuT1, Cu10, CuT16) were chosen for further investigation.

[2] = test system: G361 human melanoma cells; assay: MTT cell viability assay, G361 melanoma; type: cell-based; conditions: G361, MTT test, 24 h treatment
Method: as §1, §2

[3] = test system: A375 human melanoma cells; assay: MTT cell viability assay, A375 melanoma; type: cell-based; conditions: for IC50: A375, MTT test, 24 h treatment; for toxicity to A375 / malignant cells versus normal cells (in words): from IC50 values, MTT, 24 h
Method: as §1, §2

[4] = test system: SK-MEL-28 human melanoma cells; assay: MTT cell viability assay, SK-MEL-28 melanoma; type: cell-based; conditions: SK-MEL-28, MTT test, 24 h treatment
Method: as §1, §2

DNA of A375 cells = assay: DNA damage evaluation: number of AP sites; type: cell-based, human; conditions: A375, 24 h, concentration corresponding to IC50; control 0.67 ± 0.08
Method: DNA damage was evaluated on the basis of a basic (AP) sites presence, that arose in response to oxidative damage or as an intermediate in base excision repair pathway. The A375 cells were seeded in 6-well culture plates at a density 1 × 10^5 cells/mL and after 70–80% confluency achievement the cells were treated with CuT1, Cu10, CuT16 in concentrations corresponding to IC50 values or DMSO as vehicle in control cultures. After 24 h of incubation genomic DNA was isolated using Syngen DNA Mini Kit (Syngen Biotech, Wroclaw, Poland) according to the manufacturer’s instruction. The concentrations of isolated DNA for all samples were equalized to 100 µg/mL. The measurements of the number of AP sites were evaluated with DNA Damage Quantification Kit (Dojindo, Japan) according to the manufacturer’s instruction. The DNA was treated with Aldehyde Reactive Probe (ARP) to tag all of the AP sites with a biotin residue. Then all of the AP sites were quantified using avidin—biotin assay. The coloured product of horseradish peroxidase conjugated to the avidin was detected at 650 nm using a PowerWave™ xs microplate spectrophotometer (BioTek Instruments, Winooski, VT, USA).

ERCC = assay: qRT-PCR gene expression in A375 cells: ERCC; type: cell-based, human; conditions: A375, 24 h, concentration corresponding to IC50; RQ = 2^-ΔΔCt vs control
Method: (§3) The expression level of genes connected with DNA repair and oxidative stress response was evaluated with quantitative real-time PCR (qRT-PCR) method. The A375 cells were seeded in 6-well culture plates at a density 1 × 10^5 cells/mL and after 70–80% confluency achievement the cells were treated with CuT1, Cu10, CuT16 in concentrations corresponding to IC50 values or DMSO as vehicle in control cultures. After 24h of incubation total RNA was isolated using the Syngen Blood/Cell RNA Mini Kit (Syngen Biotech, Wroclaw, Poland). All samples were transcribed using NG dART RT-PCR reagents (EURx, Gdansk, Poland) according to the manufacturer’s instructions. The relative mRNA expression level was determined by relative quantification method (ΔΔCt) using 18S ribosomal N5 (RNA18SN5) and beta-actin (ACTB) as endogenous controls. The reference genes were selected on the basis of our preliminary studies, where RNA18SN5 and ACTB remained unaffected by the experimental conditions. The PCR was conducted in triplicate using Applied Biosystems® 7500 Fast Real-Time PCR system (Applied Biosystems, Foster City, CA, USA) and SG qPCR Master Mix (2×) (EURx, Gdansk, Poland) in accordance with the manufacturer’s protocol. Data was presented and analysed as RQ values (RQ = 2^−ΔΔCt).

MGMT = assay: qRT-PCR gene expression in A375 cells: MGMT; type: cell-based, human; conditions: A375, 24 h, concentration corresponding to IC50; RQ = 2^-ΔΔCt vs control
Method: as §3

OGG1 = assay: qRT-PCR gene expression in A375 cells: OGG1; type: cell-based, human; conditions: A375, 24 h, concentration corresponding to IC50; RQ = 2^-ΔΔCt vs control
Method: as §3

MLH1 = assay: qRT-PCR gene expression in A375 cells: MLH1; type: cell-based, human; conditions: A375, 24 h, concentration corresponding to IC50; RQ = 2^-ΔΔCt vs control
Method: as §3

PARP1 = assay: qRT-PCR gene expression in A375 cells: PARP1; type: cell-based, human; conditions: A375, 24 h, concentration corresponding to IC50; RQ = 2^-ΔΔCt vs control
Method: as §3

ATM = assay: qRT-PCR gene expression in A375 cells: ATM; type: cell-based, human; conditions: A375, 24 h, concentration corresponding to IC50; RQ = 2^-ΔΔCt vs control
Method: as §3

XPC = assay: qRT-PCR gene expression in A375 cells: XPC; type: cell-based, human; conditions: A375, 24 h, concentration corresponding to IC50; RQ = 2^-ΔΔCt vs control
Method: as §3

MSH2 = assay: qRT-PCR gene expression in A375 cells: MSH2; type: cell-based, human; conditions: A375, 24 h, concentration corresponding to IC50; RQ = 2^-ΔΔCt vs control
Method: as §3

CAT = assay: qRT-PCR gene expression in A375 cells: CAT; type: cell-based, human; conditions: A375, 24 h, concentration corresponding to IC50; RQ = 2^-ΔΔCt vs control
Method: as §3

GPX2 = assay: qRT-PCR gene expression in A375 cells: GPX2; type: cell-based, human; conditions: A375, 24 h, concentration corresponding to IC50; RQ = 2^-ΔΔCt vs control
Method: as §3

SOD2 = assay: qRT-PCR gene expression in A375 cells: SOD2; type: cell-based, human; conditions: A375, 24 h, concentration corresponding to IC50; RQ = 2^-ΔΔCt vs control
Method: as §3

A375 cells = assay: Microscopic observation of cell morphology; type: cell-based, human; conditions: A375, 24 h, concentration corresponding to IC50
Method: The MTT test results for selected compounds were verified by microscopic observations of cell morphology. […] A large part of the cells floated in the culture medium (Figure 5).
as §1

Structure (SMILES)	IC50 ([1]; Homo sapiens, Fibroblast) [µM]	IC50 ([2]; Homo sapiens, G-361) [µM]	IC50 ([3]; Homo sapiens, A-375) [µM]	IC50 ([4]; Homo sapiens) [µM]	melting point [°C]	IC50 [1] [µM]	IC50 [2] [µM]	IC50 [3] [µM]	IC50 [4] [µM]	also measured
COc1ccc(C=NNC(=S)Nc2ccccc2)cc1OC [T1]	358 ± 7.85	488.1 ± 1.66	321 ± 2.85	> 500	–	–	–	–	–	–
COc1ccc(C=NNC(=S)Nc2ccccc2Cl)cc1OC [T10]	402 ± 13	370 ± 9.34	202 ± 4.87	< 500	179 to 180	–	–	–	–	–
S=C(NN=Cc1ccc(Br)cc1)Nc1cccc(Cl)c1.[Cl-].[Cl-].[Cu+2] [CuT13]	–	–	–	–	–	130 ± 3.45	148 ± 9.77	110 ± 2.95	119 ± 9.75	–
COc1ccc(C=NNC(=S)Nc2ccccc2)cc1OC.[Cl-].[Cl-].[Cu+2] [CuT1]	–	–	–	–	–	257 ± 4.45	136 ± 7.01	69.9 ± 1.87	130 ± 3.98	toxicity to A375 / malignant cells versus normal cells (in words) [3]: less toxic for normal cells; AP sites number (DNA of A375 cells): 20.24 ± 0.19 AP/100 kbp; Mean RQ ERCC mRNA (ERCC): 0.401; Mean RQ MGMT mRNA (MGMT): 0.715; Mean RQ OGG1 mRNA (OGG1): 0.902; Mean RQ MLH1 mRNA (MLH1): 1.001; Mean RQ PARP1 mRNA (PARP1): 0.908; Mean RQ ATM mRNA (ATM): 1.452; Mean RQ XPC mRNA (XPC): 1.038; Mean RQ MSH2 mRNA (MSH2): 0.973; Mean RQ CAT mRNA (CAT): 0.773; Mean RQ GPX2 mRNA (GPX2): 0.000; Mean RQ SOD2 mRNA (SOD2): 1.510; cell morphology (in words) (A375 cells): became round and had poor adherence
Cc1ccccc1NC(=S)NN=Cc1ccc(Br)cc1 [T6, 2-[(4-Bromophenyl)methylidene]-N-(2-methylphenyl)hydrazine-1-carbothioamide]	–	–	–	–	178 to 180	–	–	–	–	–
COc1ccc(C=NNC(=S)Nc2ccccc2Cl)cc1OC.COc1ccc(C=NNC(=S)Nc2ccccc2Cl)cc1OC.[Cl-].[Cl-].[Cu+2] [CuT10]	–	–	–	–	–	203 ± 8.67	251 ± 11.1	26.1 ± 1.75	133 ± 8.34	toxicity to A375 / malignant cells versus normal cells (in words) [3]: less toxic for normal cells; AP sites number (DNA of A375 cells): 2.043 ± 0.02 AP/100 kbp; Mean RQ ERCC mRNA (ERCC): 1.215; Mean RQ MGMT mRNA (MGMT): 0.448; Mean RQ OGG1 mRNA (OGG1): 0.264 ± 0.071 and 0.264; Mean RQ MLH1 mRNA (MLH1): 0.337; Mean RQ PARP1 mRNA (PARP1): 0.342; Mean RQ ATM mRNA (ATM): 2.038; Mean RQ XPC mRNA (XPC): 1.456; Mean RQ MSH2 mRNA (MSH2): 1.337; Mean RQ CAT mRNA (CAT): 0.801; Mean RQ GPX2 mRNA (GPX2): 0.022; Mean RQ SOD2 mRNA (SOD2): 1.430; cell morphology (in words) (A375 cells): became round and had poor adherence
CN(C)/N=N/c1[nH]cnc1C(N)=O [DTIC, dacarbazine, reference compound]	> 500	426 ± 4.74	413 ± 7.08	370 ± 9.46	–	–	–	–	–	–
S=C(NN=Cc1ccc(Cl)c(Cl)c1)Nc1ccccc1Cl [T12, 2-[(3,4-Dichlorophenyl)methylidene]-N-(2-chlorophenyl)hydrazine-1-carbothioamide]	129 ± 7.09	177 ± 4.09	112 ± 12.8	99.6 ± 5.76	210 to 211	–	–	–	–	–
S=C(NN=Cc1ccc(Br)cc1)Nc1ccc(Cl)cc1 [T18, 2-[(4-Bromophenyl)methylidene]-N-(4-chlorophenyl)hydrazine-1-carbothioamide]	–	–	–	–	182 to 184	–	–	–	–	–

Reference: PMC8002893, “Influence of Complexation of Thiosemicarbazone Derivatives with Cu (II) Ions on Their Antitumor Activity against Melanoma Cells” (International Journal of Molecular Sciences, 2021)
